From patent publication US12098145B2 (Libra Therapeutics, Inc., priority 2022, dated 2024) come the findings set out here.

For experiment [1], the system named is TFEB. The experiment is described as follows: TFEB translocation assay (TFEB reporter in U2OS cells, imaging). It is filed as cell-based. To be noted: Homo sapiens; U2OS cell line with TFEB reporter, 2 hours incubation, nucleus to cytoplasm ratio, normalized to Torin-1; read-out: TFEB Translocation pEC50 (converted). The procedure, abridged: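 U2OS cells stably expressing mRFP-fused TFEB reporter, switched to Opti-MEM then treated 2 h at 37 °C with compounds (0.5% DMSO, 0.015% Tween 80). Hoechst-stained, PFA-fixed cells imaged at 20×; nucleus/cytoplasm intensity ratio per well normalized to Torin-1 (100%) and DMSO (0%).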

Experiment [2] has as its target T1, TRPML1 (Homo sapiens, UniProt Q9GZU1).
T1 construct: expressed in transfected cells; host or cells: HEK T-REx cells stably expressing GCaMP6f and TRPML1
Kind of experiment: Cellular TRPML1 assay (FLIPR, GCaMP6f calcium read-out). It is filed as cell-based. The procedure, abridged:
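HEK T-REx cells stably expressing TRPML1 and GCaMP6f, seeded 24 h before in Optimem + 0.5% FBS. After ~10 min pre-incubation at room temperature, compounds in Ca2+-free Tyrode's buffer were injected on FLIPR Tetra (final DMSO 0.5%). Calcium fluorescence kinetics followed for 300 s.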

Setting [3] is: HEKT-REx/GCaMP6f/TRPML1 cells, FLIPR TETRA, kinetic response over 300 seconds, read-out: TRPML1 FLIPR pEC50 (converted).

Where two headings read alike, the source gives them in different places.

T1 sequence (Q9GZU1 whole entry): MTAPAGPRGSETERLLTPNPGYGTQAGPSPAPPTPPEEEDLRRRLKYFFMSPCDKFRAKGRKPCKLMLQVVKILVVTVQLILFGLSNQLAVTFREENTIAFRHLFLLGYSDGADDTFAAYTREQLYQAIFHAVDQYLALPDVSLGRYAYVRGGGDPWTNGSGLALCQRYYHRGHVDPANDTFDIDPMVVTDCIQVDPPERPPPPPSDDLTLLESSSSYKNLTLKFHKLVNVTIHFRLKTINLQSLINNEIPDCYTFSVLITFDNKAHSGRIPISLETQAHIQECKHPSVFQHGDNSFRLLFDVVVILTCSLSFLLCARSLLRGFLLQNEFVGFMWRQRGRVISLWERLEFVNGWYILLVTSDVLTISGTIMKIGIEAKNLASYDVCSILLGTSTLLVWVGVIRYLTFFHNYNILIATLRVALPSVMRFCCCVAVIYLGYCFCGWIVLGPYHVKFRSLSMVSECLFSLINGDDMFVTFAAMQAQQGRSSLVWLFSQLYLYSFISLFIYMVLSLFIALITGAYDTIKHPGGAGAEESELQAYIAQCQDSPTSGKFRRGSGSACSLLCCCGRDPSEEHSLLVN

`CCc1oc(N2CC(CC)(CC)C2)nc1C(=O)Nc1ccc(O[C@@H]2C[C@@H]3C[C@@H]3C2)c(F)c1` [Example 245, N-(4-(cis-bicyclo[3.1.0]hexan-3-yloxy)-3-fluorophenyl)-2-(3,3-diethylazetidin-1-yl)-5-ethyloxazole-4-carboxamide]: the EC50 in experiment [1] and in experiment [2] (setting [3]) was 10 to 1000 nM in each case.
For `CCc1oc(N2CC3CCC3C2)nc1C(=O)Nc1ccc(OC2CC3C[C@H]3C2)c(F)c1` (stereo partly drawn) [Example 247, N-(4-(cis-bicyclo[3.1.0]hexan-3-yloxy)-3-fluorophenyl)-2-(3-azabicyclo[3.2.0]heptan-3-yl)-5-ethyloxazole-4-carboxamide], the EC50 in experiment [1] and in experiment [2] (setting [3]) was 10 to 1000 nM each time.
For the molecule `CCc1oc(N2CC(C)(OC)C2)nc1C(=O)Nc1ccc(O[C@@H]2C[C@@H]3C[C@@H]3C2)c(Cl)c1` [Example 249, N-(4-(cis-bicyclo[3.1.0]hexan-3-yloxy)-3-chlorophenyl)-5-ethyl-2-(3-methoxy-3-methylazetidin-1-yl)oxazole-4-carboxamide], the EC50 in experiment [1] and in experiment [2] (setting [3]) was 10 to 1000 nM each time.
In the case of `CCc1oc(N2CC(CC)(OC)C2)nc1C(=O)Nc1cc(F)c(N2CC3CC(C3)C2)c(F)c1` [Example 254, N-(4-(3-azabicyclo[3.1.1]heptan-3-yl)-3,5-difluorophenyl)-5-ethyl-2-(3-ethyl-3-methoxyazetidin-1-yl)oxazole-4-carboxamide], the EC50 in experiment [1] and in experiment [2] was 10 to 1000 nM in each case.
`CCc1oc(N2CCCC2)nc1C(=O)Nc1cc(F)c(N2CC3CC(C3)C2)c(F)c1` [Example 255, N-(4-(3-azabicyclo[3.1.1]heptan-3-yl)-3,5-difluorophenyl)-5-ethyl-2-(pyrrolidin-1-yl)oxazole-4-carboxamide]: the EC50 in experiment [1] and in experiment [2] was 10 to 1000 nM in each case.
For the molecule `CCc1oc(N2CC(C)(C)C2)nc1C(=O)Nc1cc(F)c(N2CC3CC(C3)C2)c(F)c1` [Example 256, N-(4-(3-azabicyclo[3.1.1]heptan-3-yl)-3,5-difluorophenyl)-2-(3,3-dimethylazetidin-1-yl)-5-ethyloxazole-4-carboxamide], the EC50 in experiment [1] and in experiment [2] was 10 to 1000 nM throughout.
With `CCc1oc(N2CC3(C2)CC(F)(F)C3)nc1C(=O)Nc1cc(F)c(N2CC3CC(C3)C2)c(F)c1` [Example 259, N-(4-(3-azabicyclo[3.1.1]heptan-3-yl)-3,5-difluorophenyl)-2-(6,6-difluoro-2-azaspiro[3.3]heptan-2-yl)-5-ethyloxazole-4-carboxamide], the EC50 is 10 to 1000 nM in experiment [1] and 1000 to 10000 nM in experiment [2] (setting [3]).
Taken in the same sequence, the figures for `CCC1(CC)CN(c2nc(C(=O)Nc3cc(C)c(OC4CC5CC(C5)C4)c(O)c3)c(CC(F)(F)F)o2)C1` (centres unmarked) [Example 260, N-(4-(bicyclo[3.1.1]heptan-3-yloxy)-3-hydroxy-5-methylphenyl)-2-(3,3-diethylazetidin-1-yl)-5-(2,2,2-trifluoroethyl)oxazole-4-carboxamide] were 10 to 1000 nM and 10 to 1000 nM.
In the case of `CCC1(CC)CN(c2nc(C(=O)Nc3cc(O)c(OC4CC5CC(C5)C4)c(Cl)c3)c(CC(F)(F)F)o2)C1` (centres unmarked) [Example 261, N-(4-(bicyclo[3.1.1]heptan-3-yloxy)-3-chloro-5-hydroxyphenyl)-2-(3,3-diethylazetidin-1-yl)-5-(2,2,2-trifluoroethyl)oxazole-4-carboxamide], the EC50 in experiment [1] and in experiment [2] (setting [3]) was 10 to 1000 nM each time.
As for `CCC1(CC)CN(c2nc(C(=O)Nc3cc(C)c(O[C@@H]4C[C@@H]5C[C@@H]5C4)c(O)c3)c(CC(F)(F)F)o2)C1` [Example 262, N-(4-(cis-bicyclo[3.1.0]hexan-3-yloxy)-3-hydroxy-5-methylphenyl)-2-(3,3-diethylazetidin-1-yl)-5-(2,2,2-trifluoroethyl)oxazole-4-carboxamide], the EC50 in experiment [1] and in experiment [2] (setting [3]) was 10 to 1000 nM in each case.
With `CCC1(CC)CN(c2nc(C(=O)Nc3cc(O)c(OC4CC5CC(C5)C4)c(F)c3)c(CC(F)(F)F)o2)C1` (centres unmarked) [Example 264, N-(4-(bicyclo[3.1.1]heptan-3-yloxy)-3-fluoro-5-hydroxyphenyl)-2-(3,3-diethylazetidin-1-yl)-5-(2,2,2-trifluoroethyl)oxazole-4-carboxamide], the EC50 in experiment [1] and in experiment [2] (setting [3]) was 10 to 1000 nM throughout.
For the molecule `CCC1(CC)CN(c2nc(C(=O)Nc3cc(O)c(O[C@@H]4C[C@@H]5C[C@@H]5C4)c(F)c3)c(CC(F)(F)F)o2)C1` [Example 269, N-(4-(cis-bicyclo[3.1.0]hexan-3-yloxy)-3-fluoro-5-hydroxyphenyl)-2-(3,3-diethylazetidin-1-yl)-5-(2,2,2-trifluoroethyl)oxazole-4-carboxamide], the EC50 in experiment [1] and in experiment [2] (setting [3]) was 10 to 1000 nM in each case.
For the molecule `COC1(C)CN(c2nc(C(=O)Nc3cc(O)c(N4C5CCCC4CC5)c(F)c3)c(CC(F)(F)F)o2)C1` [Example 272, N-(4-(8-azabicyclo[3.2.1]octan-8-yl)-3-fluoro-5-hydroxyphenyl)-2-(3-methoxy-3-methylazetidin-1-yl)-5-(2,2,2-trifluoroethyl)oxazole-4-carboxamide], the EC50 in experiment [1] and in experiment [2] was 10 to 1000 nM each time.
Regarding `CCCc1oc(N2CCC3CCCC32)nc1C(=O)Nc1cc(F)c(OC2CC3C[C@H]3C2)c(F)c1` (stereo partly drawn) [Example 275, N-(4-(cis-bicyclo[3.1.0]hexan-3-yloxy)-3,5-difluorophenyl)-2-(hexahydrocyclopenta[b]pyrrol-1(2H)-yl)-5-propyloxazole-4-carboxamide], the EC50 in experiment [1] and in experiment [2] (setting [3]) was 10 to 1000 nM throughout.
For the molecule `COC1(C)CN(c2nc(C(=O)Nc3cc(F)c(O[C@@H]4C[C@@H]5C[C@@H]5C4)c(F)c3)c(CCF)o2)C1` [Example 276, N-(4-(cis-bicyclo[3.1.0]hexan-3-yloxy)-3,5-difluorophenyl)-5-(2-fluoroethyl)-2-(3-methoxy-3-methylazetidin-1-yl)oxazole-4-carboxamide], the EC50 in experiment [1] and in experiment [2] (setting [3]) was 10 to 1000 nM throughout.
For the molecule `CCC1(OC)CN(c2nc(C(=O)Nc3cc(C)c(OC4CC5CC(C5)C4)c(F)c3)c(CCF)o2)C1` (centres unmarked) [Example 277, N-(4-(bicyclo[3.1.1]heptan-3-yloxy)-3-fluoro-5-methylphenyl)-2-(3-ethyl-3-methoxyazetidin-1-yl)-5-(2-fluoroethyl)oxazole-4-carboxamide], the EC50 in experiment [1] and in experiment [2] (setting [3]) was 10 to 1000 nM in each case.
As to `Cc1cc(NC(=O)c2nc(N3CCCC3)oc2CCF)cc(F)c1OC1CC2CC(C2)C1` (centres unmarked) [Example 278, N-(4-(bicyclo[3.1.1]heptan-3-yloxy)-3-fluoro-5-methylphenyl)-5-(2-fluoroethyl)-2-(pyrrolidin-1-yl)oxazole-4-carboxamide], the EC50 in experiment [1] and in experiment [2] (setting [3]) was 10 to 1000 nM throughout.
Consider `O=C(Nc1cc(F)c(OC2CC3CC(C3)C2)c(F)c1)c1nc(N2CCCC2)oc1CCF` (centres unmarked) [Example 279, N-(4-(bicyclo[3.1.1]heptan-3-yloxy)-3,5-difluorophenyl)-5-(2-fluoroethyl)-2-(pyrrolidin-1-yl)oxazole-4-carboxamide], for which the EC50 in experiment [1] and in experiment [2] (setting [3]) was 10 to 1000 nM in each case.
As to `COC1(C)CN(c2nc(C(=O)Nc3cc(C)c(O[C@@H]4C[C@@H]5C[C@@H]5C4)c(F)c3)c(CCF)o2)C1` [Example 280, N-(4-(cis-bicyclo[3.1.0]hexan-3-yloxy)-3-fluoro-5-methylphenyl)-5-(2-fluoroethyl)-2-(3-methoxy-3-methylazetidin-1-yl)oxazole-4-carboxamide], the EC50 in experiment [1] and in experiment [2] (setting [3]) was 10 to 1000 nM in each case.
